# Assay results: publication PMC10638516 (Acta Pharmaceutica Sinica. B, 2023)
# Biological target: hD3R (Homo sapiens, UniProt P35462)
# Assay: biochemical
# Assay type: binding
# Settings: not given
# Sequence of hD3R (P35462 whole entry): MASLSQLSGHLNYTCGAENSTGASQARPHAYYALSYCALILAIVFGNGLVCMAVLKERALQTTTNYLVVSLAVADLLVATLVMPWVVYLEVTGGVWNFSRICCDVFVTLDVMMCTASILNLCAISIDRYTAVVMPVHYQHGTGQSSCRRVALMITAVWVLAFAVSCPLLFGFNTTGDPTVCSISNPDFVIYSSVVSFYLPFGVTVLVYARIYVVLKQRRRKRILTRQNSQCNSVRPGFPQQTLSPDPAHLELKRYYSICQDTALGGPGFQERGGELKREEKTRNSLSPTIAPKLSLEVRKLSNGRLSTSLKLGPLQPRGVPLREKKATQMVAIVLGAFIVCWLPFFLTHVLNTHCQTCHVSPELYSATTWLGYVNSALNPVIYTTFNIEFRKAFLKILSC
row,Structure (SMILES),improvement of D3R binding affinity versus the phenyl group (23g)
1,CCn1c2ccccc2c2cc(CNCCCCNC(=O)c3ccc(-c4ccccn4)cc3)ccc21 [23i],approximately 10 fold

# Same assay, conditions: Ki hD3, three experiments, means ± SEM
row,Structure (SMILES),Ki [nM]
1,CC(C)n1c2ccccc2c2cc(CNCCCn3ccnc3)ccc21 [3c],665 ± 13.5
2,CCn1c2ccccc2c2cc(CNCCCCn3ccnc3)ccc21 [17a],994 ± 36.6
3,CCn1c2ccccc2c2cc(CNCCCn3cnc4ccccc43)ccc21 [17d],1100 ± 115
4,CCn1c2ccccc2c2cc(CNCCCCNC(=O)c3cc4ccccc4[nH]3)ccc21 [23a],62.6 ± 8
5,CCn1c2ccccc2c2cc(CNCCCCNC(=O)c3nc4ccccc4[nH]3)ccc21 [23b],578 ± 85
6,CCn1c2ccccc2c2cc(CNCCCCNC(=O)c3cc4ccccn4n3)ccc21 [23c],45.7 ± 2.2
7,CCn1c2ccccc2c2cc(CNCCCCNC(=O)c3ccc4[nH]cnc4c3)ccc21 [23d],125 ± 17.6
8,CCn1c2ccccc2c2cc(CNCCCCNC(=O)c3ccc4[nH]c(=O)[nH]c4c3)ccc21 [23e],99.3 ± 31.9
9,CCn1c2ccccc2c2cc(CNCCCCNC(=O)c3ccc4[nH]c(=O)oc4c3)ccc21 [23f],95.1 ± 8.9
10,CCn1c2ccccc2c2cc(CNCCCCNC(=O)c3ccc(-c4ccccc4)cc3)ccc21 [23g],206 ± 2.9
11,CCn1c2ccccc2c2cc(CNCCCCNC(=O)c3ccc(-c4ccccn4)cc3)ccc21 [23i],21.3 ± 4.3

# Same assay, conditions: read-out: % inhibition at 10 μmol/L hD3
row,Structure (SMILES),inhibition at 10 µM [%]
1,CCn1c2ccccc2c2cc(CNCCCn3cnc4ccccc43)ccc21 [17d],75 ± 14.5

# Same assay, conditions: read-out: % inhibition at 10 μmol/L hD3, 10 μmol/L test compound
row,Structure (SMILES),inhibition at 10 µM [%]
1,CC(C)n1c2ccccc2c2cc(CNCCCn3ccnc3)ccc21 [3c],83.8 ± 10.2
2,CCn1c2ccccc2c2cc(CNCCCCn3ccnc3)ccc21 [17a],75.6 ± 3.5
3,CCn1c2ccccc2c2cc(CNCCCCNC(=O)c3cc4ccccc4[nH]3)ccc21 [23a],87 ± 2.5
4,CCn1c2ccccc2c2cc(CNCCCCNC(=O)c3nc4ccccc4[nH]3)ccc21 [23b],86.7 ± 1.9
5,CCn1c2ccccc2c2cc(CNCCCCNC(=O)c3cc4ccccn4n3)ccc21 [23c],98.4 ± 2
6,CCn1c2ccccc2c2cc(CNCCCCNC(=O)c3ccc4[nH]cnc4c3)ccc21 [23d],98.5 ± 2.3
7,CCn1c2ccccc2c2cc(CNCCCCNC(=O)c3ccc4[nH]c(=O)[nH]c4c3)ccc21 [23e],99.2 ± 0.5
8,CCn1c2ccccc2c2cc(CNCCCCNC(=O)c3ccc4[nH]c(=O)oc4c3)ccc21 [23f],97.6 ± 0.3
9,CCn1c2ccccc2c2cc(CNCCCCNC(=O)c3ccc(-c4ccccc4)cc3)ccc21 [23g],102 ± 1.2
10,CCn1c2ccccc2c2cc(CNCCCCNC(=O)c3ccc(-c4ccccn4)cc3)ccc21 [23i],101 ± 0.8

# Biological target: hD2R (Homo sapiens, UniProt P14416)
# Assay: biochemical
# Assay type: binding
# Settings: not given
# Sequence of hD2R (P14416 whole entry): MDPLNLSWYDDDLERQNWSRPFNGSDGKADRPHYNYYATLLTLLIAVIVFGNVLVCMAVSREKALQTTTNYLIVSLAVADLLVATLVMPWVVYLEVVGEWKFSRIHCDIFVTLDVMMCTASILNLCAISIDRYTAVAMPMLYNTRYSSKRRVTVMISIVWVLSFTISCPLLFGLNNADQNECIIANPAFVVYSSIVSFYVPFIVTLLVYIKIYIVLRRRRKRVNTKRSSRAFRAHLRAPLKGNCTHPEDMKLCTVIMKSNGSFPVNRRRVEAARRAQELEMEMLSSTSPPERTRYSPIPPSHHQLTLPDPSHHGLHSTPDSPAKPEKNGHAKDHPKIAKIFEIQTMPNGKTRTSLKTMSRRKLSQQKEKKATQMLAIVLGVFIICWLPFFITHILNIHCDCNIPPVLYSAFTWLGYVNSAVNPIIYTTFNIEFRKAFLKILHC
row,Structure (SMILES),Ki [µM]
1,CC(C)n1c2ccccc2c2cc(CNCCCn3ccnc3)ccc21 [3c],> 10
2,CCn1c2ccccc2c2cc(CNCCCCn3ccnc3)ccc21 [17a],> 10
3,CCn1c2ccccc2c2cc(CNCCCn3cnc4ccccc43)ccc21 [17d],> 10
4,CCn1c2ccccc2c2cc(CNCCCCNC(=O)c3cc4ccccc4[nH]3)ccc21 [23a],> 10
5,CCn1c2ccccc2c2cc(CNCCCCNC(=O)c3nc4ccccc4[nH]3)ccc21 [23b],> 10
6,CCn1c2ccccc2c2cc(CNCCCCNC(=O)c3cc4ccccn4n3)ccc21 [23c],> 10
7,CCn1c2ccccc2c2cc(CNCCCCNC(=O)c3ccc4[nH]cnc4c3)ccc21 [23d],> 10
8,CCn1c2ccccc2c2cc(CNCCCCNC(=O)c3ccc4[nH]c(=O)[nH]c4c3)ccc21 [23e],> 10
9,CCn1c2ccccc2c2cc(CNCCCCNC(=O)c3ccc4[nH]c(=O)oc4c3)ccc21 [23f],> 10
10,CCn1c2ccccc2c2cc(CNCCCCNC(=O)c3ccc(-c4ccccc4)cc3)ccc21 [23g],> 10
11,CCn1c2ccccc2c2cc(CNCCCCNC(=O)c3ccc(-c4ccccn4)cc3)ccc21 [23i],> 10

# Same assay, conditions: read-out: % inhibition at 10 μmol/L hD2
row,Structure (SMILES),inhibition at 10 µM [%]
1,CC(C)n1c2ccccc2c2cc(CNCCCn3ccnc3)ccc21 [3c],1.7 ± 9.2
2,CCn1c2ccccc2c2cc(CNCCCn3cnc4ccccc43)ccc21 [17d],71.8 ± 3.6
3,CCn1c2ccccc2c2cc(CNCCCCNC(=O)c3cc4ccccc4[nH]3)ccc21 [23a],30 ± 14.1
4,CCn1c2ccccc2c2cc(CNCCCCNC(=O)c3ccc4[nH]cnc4c3)ccc21 [23d],2.7 ± 4.3
5,CCn1c2ccccc2c2cc(CNCCCCNC(=O)c3ccc4[nH]c(=O)[nH]c4c3)ccc21 [23e],1.9 ± 10.7
6,CCn1c2ccccc2c2cc(CNCCCCNC(=O)c3ccc4[nH]c(=O)oc4c3)ccc21 [23f],5.5 ± 21.5
7,CCn1c2ccccc2c2cc(CNCCCCNC(=O)c3ccc(-c4ccccn4)cc3)ccc21 [23i],6.5 ± 2.3
